# Measured values taken from patent US6365634B1, “Naturally occurring compounds and their derivatives as cyclooxygenase 2 and/or 5-lipoxygenase inhibitors” (C-P Technology Limited Partnership, priority 1997, dated 2002).
# How the values were obtained:
# [1] = system: human keratinocytes; assay: Microscopic examination of treated keratinocyte cultures; format: cell-based
# [2] = biological target: T1, human recombinant COX II (Homo sapiens, UniProt P35354); assay: COX II biochemical assay (3H-arachidonic acid conversion, TLC quantitation)
# T1 construct: purchased Oxford Chemical
# T1 sequence (P35354 18-604): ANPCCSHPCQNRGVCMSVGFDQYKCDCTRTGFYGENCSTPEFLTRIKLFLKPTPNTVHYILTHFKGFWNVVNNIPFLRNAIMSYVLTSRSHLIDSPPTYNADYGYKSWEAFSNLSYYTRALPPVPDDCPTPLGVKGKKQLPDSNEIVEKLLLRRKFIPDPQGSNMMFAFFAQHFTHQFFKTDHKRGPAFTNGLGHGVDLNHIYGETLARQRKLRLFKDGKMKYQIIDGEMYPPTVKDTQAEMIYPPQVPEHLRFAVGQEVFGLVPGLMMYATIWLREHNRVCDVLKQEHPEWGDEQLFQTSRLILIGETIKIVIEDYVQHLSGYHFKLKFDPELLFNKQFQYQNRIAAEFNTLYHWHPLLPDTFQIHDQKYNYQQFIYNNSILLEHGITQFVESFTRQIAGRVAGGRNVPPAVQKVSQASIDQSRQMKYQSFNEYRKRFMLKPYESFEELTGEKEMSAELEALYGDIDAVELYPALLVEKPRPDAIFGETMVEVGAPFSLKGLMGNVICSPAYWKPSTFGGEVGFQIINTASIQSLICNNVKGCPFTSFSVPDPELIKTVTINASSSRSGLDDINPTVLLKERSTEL
# Protocol: Two units of recombinant COX II enzyme (corresponding to 0.8 ug total protein) was added followed by 5 uL aliquots of the peat bog extracts yielding a final concentration of the peat extracts of 25 ug/ml. All samples were run in duplicate. […] Reactions were initiated by the addition of ^3H-arachidonic acid (DuPont-NEN) at a final concentration of 50 uM. The reactions were maintained for 5 minutes at 37° C. and stopped by the addition of ice-cold methanol/acetic acid (10:1 v/v).
# The assessment of cyclooxygenase activity (both COX I and II) in the presence and absence of the peat bog extracts was based on the quantitation of tlhe radiolabeled arachidonic acid metabolites prostaglandin A2 (PGA2), PGE2, and PGF2-alpha. To do this, a 50 uL sample of each reaction solution was separated via TLC on LK6DF silica plates co-spotted with arachidonic acid, PGA2, and PGF2-alpha and developed in hexane/isopropyl alcohol/ acetic acid (85:15:1 v/v). The bands were visualized by UV-vis or I2 staining and scraped into scintillation vials for quantitation. […] The total enzyme activity (At), the corrected enzyme activity in the presence of an inhibitor (Ai), and % inhibition were calculated by the following equations:
# 3) Percent Inhibition=100 (1−Ai/ At)
# [3] = system: human keratinocyte PGE2 production; assay: Cell-based COX II assay: PGE2 production by cultured human foreskin keratinocytes (enzyme immunoassay); settings: 5, 1.0, 0.2 and 0.04 uM, 24 hours, high calcium medium
# Protocol: The ability of dehydroabietic acid methyl ester to inhibit the enzymatic activities of COX II and 5-LO was tested using primary cultures of human foreskin keratinocytes. Briefly, human keratinocytes were plated in 48-well plates (Nunc) at an initial density of 2.5×10^4 cells per well. The cultures were maintained in medium 154XP (Cascade Biologics) to which human keratinocyte growth supplement (Cascade Biologics) was added. Cultures were plated initially in medium 154XP containing 0.07 mM CaCl2. Upon reaching […] confluency, the media was exchanged with high calcium medium 154XP containing 1.2 mM CaCl2. Previous studies have shown that an increase in extracellular Ca^2+concentration induces the differentiation of cultured keratinocytes with a concomitant increase in the expression of COX II protein and COX II mRNA with no apparent effect on COX I expression (Leong, J., Hughes-Fulford, M., Rakhlin, A., Maclouf, J., and Goldyne, M., (1996), Exp. Cell Res., V224, p79). Twenty-four hours after switching to the high calcium media, duplicate wells were treated with dehydroabietic acid methyl ester serially diluted in ethanol to produce final concentrations of 5, 1.0, 0.2, and 0.04 uM. Companion cultures were treated with an identical dilution series of the Merck COX II-specific inhibitor DFU. Twenty-four hours later, samples were removed from each treated well (as well as vehicle-treated control wells) and the amount of PGE2 (a product of the COX II pathway) was quantified using a PGE2-specific enzyme immunoassay (Cayman Chemical). ), As was done with the previously described biochemical assays (COX I, COX II, 5-LO, and 15-LO), the percent inhibition was calculated based on a comparison between vehicle treated control cultures and cultures treated with dehydroabietic acid methyl ester or DFU (see Fractionation and Bioassay Analysis of Fractions Derived from Extract-8 above).
# The ability of 4-cumylphenol to inhibit the enzymatic activity of COX II was tested using primary cultures of human foreskin keratinocytes. These cell studies were performed in an identical manner to the studies described in Example 6. […] Twenty-four hours later, samples were removed from each treated well (as well as vehicle-treated control wells) and the amount of PGE2 (a product of the COX II pathway) was quantified using a PGE2-specific enzyme immunoassay (Cayman Chemical). ), as was done with the previously described COX I, COX II, and 15-LO biochemical assays (see Example 2B). The percent inhibition was calculated based on a comparison between vehicle treated control cultures and cultures treated with 4-cumylphenol or DFU. […]
# To evaluate the biological activities of 3-methoxy aniline, sufficient quantities of the compound were synthesized as detailed in Example 1C (above). […]
structure (smiles),measurement,setting,value
"CC(C)(c1ccccc1)c1ccc(O)cc1 [4-Cumylphenol, 4-cumylphenol]",toxicity when treated cultures were examined microscopically,[1],lack of toxicity
same,Percent Inhibition of COX II,"[2]; pure 4-cumylphenol, assay as Example 2B, concentration not given",22.4%
same,inhibition of PGE2 production by cultured human keratinocytes,[3],inhibited the production of PGE2
"COC(=O)[C@]1(C)CCC[C@]2(C)c3ccc(C(C)C)cc3CC[C@@H]12 [Dehydroabietic acid methyl ester, dehydroabietic acid methyl ester]",toxicity when treated cultures were examined microscopically,[1],lack of toxicity
same,inhibited COX II preferentially over COX I by,"[2]; 250 uM, difference of percent inhibition COX II versus COX I",over 30%
same,Percent Inhibition of COX II,[2]; final concentration of 250 uM,31.5%
same,inhibition of PGE2 production by cultured human keratinocytes,[3],inhibited the production of PGE2
